The subject of one test is diabetic rats. In words: Erectile response to cavernosal nerve electrical stimulation in anaesthetized diabetic rats. Format: in vivo, rat. To be noted: administered alone, intravenous administration. The method, then: The in-vivo activity of the active substance combination is tested as described in the reference of Saénz Tejada et al. in International Journal of Impotence Research 2003, 15, 90-93 under “Methods—Erectile responses to cavernosal nerve stimulation in anaesthetized rats”, which is hereby incorporated by reference and forms part of the disclosure. The erectile response to cavemosal nerve electrical stimulation in anaesthetized diabetic rats was determined as described above.

Test [1] has as its system human penile resistance arteries. In words: Effect of calcium dobesilate on relaxation induced by K(ATP)-channel activation (pinacidil) in human penile arteries. To be noted: calcium dobesilate 10 μM for 30 min; norepinephrine-contracted arteries; pinacidil 1 nM to 1 mM. As to the method: (§1) Penile small arteries, […] arteries (lumen diameter 150-400 μm), which are the terminal branches of deep penile arteries, are dissected by carefully removing the adhering trabecular tissue, and arterial ring segments (2 mm long) and are subsequently mounted on two 40 μm wires on microvascular Halpern-Mulvany myographs (J. P. Trading, Aarhus, Denmark) for isometric tension recordings. The vessels are allowed to equilibrate for 30 min in physiological salt solution (PSS) of the following composition (mmol/l): NaCl 119, KCl 4.6, CaCl2 1.5, MgCl2 1.2, NaHCO3 24.9, glucose 11, KH2PO4 1.2, EDTA 0.027 at 37° C. continuously bubbled with 95% 02/5% CO2 mixture to maintain a pH of 7.4. Passive tension and internal circumference of vascular segments when relaxed in situ under a transmural pressure of 100 mmHg (L100), are determined. […] The preparations are then exposed to 125 mM K^+ (KPSS, equimolar substitution of […] in PSS) and the contractile response is measured. […] At this time, responses to pinacidil are again evaluated in NE-contracted arteries. […] Relaxation responses are expressed as percentage of total relaxation (loss in tone) induced by the addition of 0.1 mmol/l papaverine HCl to the chambers at the end of the experiment. All data are expressed as mean±standard error. […]

For test [2] the test system is unchanged. As to the kind of experiment: Effect of calcium dobesilate on relaxation induced by Ca2+-activated K+-channel activation (NS1619) in human penile arteries. To be noted: calcium dobesilate 10 μM for 30 min; norepinephrine-contracted arteries; NS1619 1 nM to 10 μM. As to the method: as §1, with “NS1619” for “pinacidil”

Turning to `O=c1[nH]c2cc(C(F)(F)F)ccc2n1-c1cc(C(F)(F)F)ccc1O` [NS1619, 1-[2-Hydroxy-5-(trifluoromethyl)phenyl]-5-(trifluoromethyl)-1,3-dihydro-2H-benzimidazol-2-one], the erectile response entry in the test with diabetic rats (0.3 mg/kg or 5 mg/kg) was “do not modify the erectile response”.

For the compound `O=S(=O)(O)c1cc(O)ccc1O` [calcium dobesilate, calcium 2,5-dihydroxybenzenesulfonate], in the test with diabetic rats (10 mg/kg), the erectile response entry was “do not modify the erectile response”. Moreover, the “potentiation of relaxation induced by activation of K(ATP) channels with pinacidil” value in test [1] is on record as “significantly potentiates”. For the same compound, the “potentiation of relaxant responses induced by K(Ca) channel activation” value in test [2] is “strongly potentiates”.

The record behind these values is patent US20070032471A1, “Active substance combination comprising a 2,5-dihydroxybenzenesulfonic compound and a potassium ion channel modulator” (LABORATORIOS DEL DR. ESTEVE S.A., priority 2003, published 2007).
